Reference: patent US8609849B1, “Hydroxylated sulfamides exhibiting neuroprotective action and their method of use” (Fox Chase Chemical Diversity Center, Inc., priority 2010, dated 2013)

Tested on: Hippocampal Cultures
Assay: Neuroprotection from hydrogen peroxide (oxidative stress), propidium iodide assay
Assay type: cell-based
Conditions: Rattus norvegicus; 10 μM hydrogen peroxide, hippocampal cultures, propidium iodide (cell death); read-out: NP from HP PI EC50
Source text: (§1) Cell cultures: All compounds are screened with dissociated hippocampal cultures derived from embryonic day 18 rats as the primary test system. With this preparation, primary neurons are used to test for toxicity as well as neuroprotection in a highly relevant experimental system to epilepsy. In brief, hippocampal tissue are obtained commercially through Brain Bits (Springfield, Ill.) and cultures prepared as previously described by Brewer (Brewer, G. J. Serum-free B27/neurobasal medium supports differentiated growth of neurons from the striatum, substantia nigra, septum, cerebral cortex, cerebellum and dentate gyms, J. Neurosci. Res. 1995, 42, 674-683.). The hippocampal neurons are platted at low density (10,000 cell/well) in a 96-well format and maintained in serum-free medium consisting of Neurobasal Medium supplemented with B27 and GlutaMAX (Gibco). Pre-coated poly-L-lysine coated plates are used because of the preferential adherence and survival of hippocampal neurons on this matrix support.
(§2) Potent neuroprotection is the distinguishing characteristic that separates this program's anticonvulsants from all other commercial drugs for epilepsy. The experimental details and the rationale for the implemented assays are essential in differentiating these compounds from that of others. The central objective of all neuroprotective assays was their relevancy to excitotoxicity and oxidative stress related to epilepsy. Both the amount of glutamate and hydrogen peroxide used in the assays, as well as the time of treatment and duration of the experiment, were designed to be relevant to epilepsy. Further, all time parameters employed in these studies were empirically determined to be within the limits of reversible toxic events, yet using amounts of glutamate and hydrogen peroxide that were relevant to the disease. In regard to glutamate toxicity, a critical feature was the duration of treatment of the hippocampal neurons. The rational for using a short 5 min treatment with glutamate was based on the observation of Randall and Thayer (Randall, R. D.; Thayer, S. A. Glutamate-induced calcium transient triggers calcium overload and neurotoxicity in rat hippocampal neurons, J. Neurosci. 1992, 12, 1882-1895). […] The rationale is that this intense burst of glutamate and resulting calcium overload is relevant to seizures and therefore was important data to capture in the screening assay. The amount of glutamate (30 μM) employed in our screening was based on the basal levels of glutamate observed in microdialysis measurements of hippocampus from epileptogenic patients (Cavus et al. Decreased hippocampal volume on MRI is associated with increased extracellular glutamate in epilepsy patients, Epilepsia, 2008, 49, 1358-1366.). In regard to hydrogen peroxide, the amount employed (10 μM) was detected in the hippocampus of rats after kainate-induced status epilepticus (Jarrett et. al., Mitochondrial DNA damage and impaired base excision repair during epileptogenesis, Neurobiol. Dis. 2008, 30, 130-138). To produce neural damage and death with these amounts of glutamate and hydrogen peroxide, the cultures were changed to a medium with significant depletion of antioxidant components in the defined medium supplement B-27 just prior to treatment with the compounds. This was performed to obtain a significant and reproducible toxic signal in the hippocampal neurons and because loss of antioxidant control may be a component of epileptogenesis (Waldbaum and Patel, Mitochondria, oxidative stress and temporal lobe epilepsy, Epilepsy Res. 2010 88, 23-45.; Wu et al., Mitochondrial DNA mutation-elicited oxidative stress, oxidative damage, and altered gene expression in cultured cells of patients with MERRF syndrome, Mol. Neurobiol. 2010, 41, 256-266.). Neuroprotection studies with hydrogen peroxide were conducted with cultures that were between day 12 and day 18. Studies of neuroprotection glutamate were conducted between day 19 and day 22. […]

SMILES	EC50 [µM]
NS(=O)(=O)NCC[C@H](O)c1ccccc1Cl [Example 18, (S)-3-(2-Chloro-phenyl)-3-hydroxypropyl-1-sulfamide]	0.001
NS(=O)(=O)NCC[C@@H](O)c1ccccc1Cl [Example 17, (R)-3-(2-Chloro-phenyl)-3-hydroxypropyl-1-sulfamide]	> 300
NS(=O)(=O)NCCC(O)c1ccccc1 (centres unmarked) [Example 9, N-(3-phenyl-3-hydroxy-propyl)-sulfamide]	> 300
NS(=O)(=O)NCCC(O)c1ccccc1F (centres unmarked) [Example 6, 3-(2-Fluoro-phenyl)-3-hydroxypropyl-1-sulfamide]	0.01
NS(=O)(=O)NCCC(O)c1ccc(F)cc1Cl (centres unmarked) [Example 8, N-[3-(2-Chloro-4-fluoro-phenyl)-3-hydroxy-propyl]-sulfamide]	> 300
NS(=O)(=O)N1CCC(O)(c2ccccc2F)CC1 [Example 19, 4-(2-Fluorophenyl)-4-hydroxypiperidine-1-sulfonamide]	1
CCc1ccccc1C(O)CCNS(N)(=O)=O (centres unmarked) [Example 12, 3-(2-Ethyl-phenyl)-3-hydroxypropyl-1-sulfamide]	0.01

Tested on: Hippocampal Cultures
Assay: Neuroprotection from glutamate (excitotoxicity), CFDA assay
Assay type: cell-based
Conditions: Rattus norvegicus, read-out: NP from Glutamate CFDA EC50
Source text: as §1, §2

SMILES	EC50 [µM]
NS(=O)(=O)NCCC(O)c1ccccc1C(F)(F)F (centres unmarked) [Example 20, 3-(2-Trifluoromethyl-phenyl)-3-hydroxypropyl-1-sulfamide]	> 300
NS(=O)(=O)NCCC(O)c1ccccc1[N+](=O)[O-] (centres unmarked) [Example 21, 3-(2-Nitro-phenyl)-3-hydroxypropyl-1-sulfamide]	> 300

Same assay, conditions: Rattus norvegicus; 30 μM glutamate, hippocampal cultures, CFDA (neuronal viability); read-out: NP from Glutamate CFDA EC50

SMILES	EC50 [µM]
NS(=O)(=O)NCC[C@H](O)c1ccccc1Cl [Example 18, (S)-3-(2-Chloro-phenyl)-3-hydroxypropyl-1-sulfamide]	1
Cc1ccccc1C(O)CCNS(N)(=O)=O (centres unmarked) [Example 11, 3-(2-Methyl-phenyl)-3-hydroxypropyl-1-sulfamide]	> 300
NS(=O)(=O)NCCC(O)c1ccccc1 (centres unmarked) [Example 9, N-(3-phenyl-3-hydroxy-propyl)-sulfamide]	300
NS(=O)(=O)NCCC(O)c1ccccc1F (centres unmarked) [Example 6, 3-(2-Fluoro-phenyl)-3-hydroxypropyl-1-sulfamide]	1
NS(=O)(=O)NCCC(O)c1ccccc1-c1ccccc1 (centres unmarked) [Example 23, 3-(2-Phenyl-phenyl)-3-hydroxypropyl-1-sulfamide]	10
NS(=O)(=O)NCCC(O)c1ccc(F)cc1Cl (centres unmarked) [Example 8, N-[3-(2-Chloro-4-fluoro-phenyl)-3-hydroxy-propyl]-sulfamide]	> 300
NS(=O)(=O)N1CCC(O)(c2ccccc2F)CC1 [Example 19, 4-(2-Fluorophenyl)-4-hydroxypiperidine-1-sulfonamide]	1
CCc1ccccc1C(O)CCNS(N)(=O)=O (centres unmarked) [Example 12, 3-(2-Ethyl-phenyl)-3-hydroxypropyl-1-sulfamide]	0.01
NS(=O)(=O)NCCC(O)c1ccccc1-c1cncc(Cl)c1 (centres unmarked) [Example 24, 3-[2-(5-Chloro-pyridine-3-yl)-phenyl]-3-hydroxypropyl-1-sulfamide]	10

Tested on: Hippocampal Cultures
Assay: Neuroprotection from glutamate (excitotoxicity), propidium iodide assay
Assay type: cell-based
Conditions: Rattus norvegicus, read-out: NP from Glutamate PI EC50
Source text: as §1, §2

SMILES	EC50 [µM]
NS(=O)(=O)NCCC(O)c1ccccc1C(F)(F)F (centres unmarked) [Example 20, 3-(2-Trifluoromethyl-phenyl)-3-hydroxypropyl-1-sulfamide]	> 300
NS(=O)(=O)NCCC(O)c1ccccc1[N+](=O)[O-] (centres unmarked) [Example 21, 3-(2-Nitro-phenyl)-3-hydroxypropyl-1-sulfamide]	10

Same assay, conditions: Rattus norvegicus; 30 μM glutamate, hippocampal cultures, propidium iodide (cell death); read-out: NP from Glutamate PI EC50

SMILES	EC50 [µM]
NS(=O)(=O)NCC[C@H](O)c1ccccc1Cl [Example 18, (S)-3-(2-Chloro-phenyl)-3-hydroxypropyl-1-sulfamide]	0.1
Cc1ccccc1C(O)CCNS(N)(=O)=O (centres unmarked) [Example 11, 3-(2-Methyl-phenyl)-3-hydroxypropyl-1-sulfamide]	> 300
NS(=O)(=O)NCCC(O)c1ccccc1 (centres unmarked) [Example 9, N-(3-phenyl-3-hydroxy-propyl)-sulfamide]	> 300
NS(=O)(=O)NCCC(O)c1ccccc1F (centres unmarked) [Example 6, 3-(2-Fluoro-phenyl)-3-hydroxypropyl-1-sulfamide]	0.1
NS(=O)(=O)NCCC(O)c1ccccc1-c1ccccc1 (centres unmarked) [Example 23, 3-(2-Phenyl-phenyl)-3-hydroxypropyl-1-sulfamide]	300
NS(=O)(=O)NCCC(O)c1ccc(F)cc1Cl (centres unmarked) [Example 8, N-[3-(2-Chloro-4-fluoro-phenyl)-3-hydroxy-propyl]-sulfamide]	10
NS(=O)(=O)N1CCC(O)(c2ccccc2F)CC1 [Example 19, 4-(2-Fluorophenyl)-4-hydroxypiperidine-1-sulfonamide]	0.001
CCc1ccccc1C(O)CCNS(N)(=O)=O (centres unmarked) [Example 12, 3-(2-Ethyl-phenyl)-3-hydroxypropyl-1-sulfamide]	10
NS(=O)(=O)NCCC(O)c1ccccc1-c1cncc(Cl)c1 (centres unmarked) [Example 24, 3-[2-(5-Chloro-pyridine-3-yl)-phenyl]-3-hydroxypropyl-1-sulfamide]	> 300

Tested on: Hippocampal Cultures
Assay: Neuroprotection from hydrogen peroxide (oxidative stress), CFDA assay
Assay type: cell-based
Conditions: Rattus norvegicus; 10 μM hydrogen peroxide, hippocampal cultures, CFDA (neuronal viability); read-out: NP from HP CFDA EC50
Source text: as §1, §2

SMILES	EC50 [µM]
NS(=O)(=O)NCC[C@H](O)c1ccccc1Cl [Example 18, (S)-3-(2-Chloro-phenyl)-3-hydroxypropyl-1-sulfamide]	0.001
NS(=O)(=O)NCC[C@@H](O)c1ccccc1Cl [Example 17, (R)-3-(2-Chloro-phenyl)-3-hydroxypropyl-1-sulfamide]	> 300
NS(=O)(=O)NCCC(O)c1ccccc1 (centres unmarked) [Example 9, N-(3-phenyl-3-hydroxy-propyl)-sulfamide]	> 300
NS(=O)(=O)NCCC(O)c1ccccc1F (centres unmarked) [Example 6, 3-(2-Fluoro-phenyl)-3-hydroxypropyl-1-sulfamide]	0.01
NS(=O)(=O)NCCC(O)c1ccc(F)cc1Cl (centres unmarked) [Example 8, N-[3-(2-Chloro-4-fluoro-phenyl)-3-hydroxy-propyl]-sulfamide]	> 300
NS(=O)(=O)N1CCC(O)(c2ccccc2F)CC1 [Example 19, 4-(2-Fluorophenyl)-4-hydroxypiperidine-1-sulfonamide]	1
CCc1ccccc1C(O)CCNS(N)(=O)=O (centres unmarked) [Example 12, 3-(2-Ethyl-phenyl)-3-hydroxypropyl-1-sulfamide]	> 300

Tested on: mice
Assay: Maximal Electroshock Test (anti-seizure test)
Assay type: in vivo
Conditions: at 100 mg/kg
Source text: Seizure-related assays, Maximal electroshock test: The most definitive assay for antiseizure activity is the maximal electroshock (MES) test (Swinyard, E. A. Laboratory evaluation of antiepileptic drugs: review of laboratory methods, Epilepsia, 1969, 10, 107-119.). […] With both rodent assays, the duration of action is of high importance as well as the potency of the response.

SMILES	MES Duration
NS(=O)(=O)NCCC(O)c1ccccc1F (centres unmarked) [Example 6, 3-(2-Fluoro-phenyl)-3-hydroxypropyl-1-sulfamide]	4 hr at 100 mg/kg
NS(=O)(=O)N1CCC(O)(c2ccccc2F)CC1 [Example 19, 4-(2-Fluorophenyl)-4-hydroxypiperidine-1-sulfonamide]	6 hrs at 100 mg/kg
